The assay has as its target T1, human P2X4 receptors (Homo sapiens, UniProt Q99571).
T1 sequence (Q99571 1-388): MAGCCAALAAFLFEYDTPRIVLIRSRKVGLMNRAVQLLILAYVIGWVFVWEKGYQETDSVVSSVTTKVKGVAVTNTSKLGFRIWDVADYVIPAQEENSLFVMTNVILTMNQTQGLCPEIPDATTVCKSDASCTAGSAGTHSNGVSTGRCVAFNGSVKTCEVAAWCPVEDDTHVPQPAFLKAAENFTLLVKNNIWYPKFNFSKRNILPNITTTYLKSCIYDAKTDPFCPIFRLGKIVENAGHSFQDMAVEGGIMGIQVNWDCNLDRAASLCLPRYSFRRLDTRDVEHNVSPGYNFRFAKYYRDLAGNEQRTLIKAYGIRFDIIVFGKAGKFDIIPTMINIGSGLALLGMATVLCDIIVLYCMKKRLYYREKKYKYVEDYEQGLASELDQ
The experiment in a line: P2X4 receptor antagonism, intracellular calcium assay (Fura-2 AM) in 1321N1 cells. In kind it is cell-based. The settings on record: 1321N1 cells stably expressing human P2X4 receptors; compound added 15 minutes before ATP; ATP-induced calcium influx; read-out: Inhibition activities (IC50 μM). Here is the method:
1321N1 cells stably expressing human P2X4 receptors were plated in 96-well assay plate and cultured 24 hours at 37° C. in an atmosphere of 5% CO2 for intracellular calcium assay. Fura-2 AM calcium fluorescent indicator was used for the intracellular calcium assay. Fura-2 AM was dissolved in an assay buffer, and the solution was loaded onto cells. The obtained plate was used for fluorescent assay. Test compounds were treated to cells 15 minutes before the addition of ATP, and the response to intracellular calcium influx induced by addition of ATP was monitored by a micro plate reader. The fluorescence ratio of excitations wavelengths of 340 nm and 380 nm was used as the index of intracellular calcium change. The inhibition activities of the test compounds were calculated by comparison with the absence of the test compound (control).
P2X4 receptor antagonism of the compound of the present invention was measured as described below. […]
Test compounds were treated to cells 15 minutes before the addition of ATP, and the response to intracellular calcium influx induced by addition of ATP was monitored by a micro plate reader. The fluorescence ratio of excitations wavelengths of 340 nm and 380 nm was used as the index of intracellular calcium change. The inhibition activities of the test compounds were calculated by comparison with the absence of the test compound (control).

Where a name gives a salt, the structure may show the parent alone.

Turning to `O=c1nc(-c2cccc(-c3nnn[nH]3)c2)c2ccc3ccccc3c2[nH]1` [Example 2, 4-[3-(1H-Tetrazol-5-yl)phenyl]-1H-benzo[h]quinazolin-2-one sodium salt], the IC50 was determined as 0.16 µM.

The record behind these values is patent publication US8680110B2, “P2X4 receptor antagonist” (Nippon Chemiphar Co., Ltd., priority 2010, dated 2014).
